Data reported in patent publication US8729097B2, “Quinoline compounds as inhibitors of angiogenesis, human methionine aminopeptidase, and SIRT1, and methods of treating disorders” (The Johns Hopkins University, priority 2008, dated 2014).
Values joined by “and” are separate entries in the source; they are usually repeats but may differ in a detail not shown here. Equal values may be shown once. Read-outs that look alike come from different tables or passages of the source.

Assays:
HUVEC [1] = test: HUVEC proliferation, [3H]-thymidine incorporation assay; format: cell-based, human; conditions: Homo sapiens, HUVEC
Description: (§1) HCC1954 cells were grown in RPMI1640 containing 10% FBS. HUVEC were grown using the EGM-2 bullet kit (Cambrex) as per manufacturer's instructions. The cells were maintained in a humidified incubator adjusted to 5% CO2. For drug screening, 10 mM stock solutions of Johns Hopkins Drug Library were arrayed in 96-well plates and screened at a final concentration of 10 μM. The cell growth was determined using a [^3H]-thymidine incorporation assay. Cells (typically 5,000 cells/well) were seeded in 96-well plates containing 0.2 ml of growth media and allowed to adhere for 24 h. The cells were then treated with drugs for 24 h. Cells were pulsed with 1 μCi [^3H]-thymidine (MP Biomedicals, 6.7 Ci mmol^−1) for 8 h and harvested, upon trypsin treatment, onto glass fiber filters (Wallac, Turku, Finland), from which ^3H counts were determined using a Perkin Elmer MicroBeta plate reader.

SirT1 = target: T1, SirT1 (Homo sapiens, UniProt Q96EB6); test: biochemical; conditions: SirT1 IC50, recombinant human sirtuin, fluorogenic substrate
T1 sequence (Q96EB6 1-747): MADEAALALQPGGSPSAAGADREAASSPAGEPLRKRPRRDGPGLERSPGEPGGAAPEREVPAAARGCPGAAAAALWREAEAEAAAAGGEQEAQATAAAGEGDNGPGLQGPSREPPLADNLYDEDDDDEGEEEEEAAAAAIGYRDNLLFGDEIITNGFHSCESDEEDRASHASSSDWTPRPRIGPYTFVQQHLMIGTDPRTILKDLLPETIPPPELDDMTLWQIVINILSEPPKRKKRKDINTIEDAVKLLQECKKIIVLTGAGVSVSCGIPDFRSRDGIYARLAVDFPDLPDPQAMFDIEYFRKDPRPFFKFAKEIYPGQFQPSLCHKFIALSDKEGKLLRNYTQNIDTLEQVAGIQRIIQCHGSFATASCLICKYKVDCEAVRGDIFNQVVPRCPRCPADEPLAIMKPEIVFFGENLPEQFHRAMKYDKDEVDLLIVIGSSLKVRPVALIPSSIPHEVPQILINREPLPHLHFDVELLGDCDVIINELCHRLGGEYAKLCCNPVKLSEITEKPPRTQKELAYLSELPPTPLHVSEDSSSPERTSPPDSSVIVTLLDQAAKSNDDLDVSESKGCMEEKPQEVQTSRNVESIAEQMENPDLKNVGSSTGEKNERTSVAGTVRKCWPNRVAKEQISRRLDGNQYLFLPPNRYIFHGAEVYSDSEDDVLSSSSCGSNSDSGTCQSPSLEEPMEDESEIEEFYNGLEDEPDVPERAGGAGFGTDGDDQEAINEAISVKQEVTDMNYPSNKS
Description: (§3) The sirtuin fluorometric assay kits were obtained from Biomol. The assay was conducted according to the manufacturer's instruction. One unit of SirT1 was used per reaction. For SirT2 and SirT3, 2 units were used for the assay.

[2] = tested on: acetylation of p53 (K382), α-tubulin and histone-H3; test: Acetylation status of sirtuin substrates in HUVEC (Western blot); format: cell-based, human
Description: (§2) Cells were lysed by adding 1 volume of 2× Laemmli buffer and were then boiled for 5 min. The samples were separated by SDS-PAGE and transferred to nitrocellulose membrane (Bio-Rad). Proteins were detected using primary antibodies for p53 (Santa Cruz), met-14-3-3γ (Novus), p21 (Santa Cruz), Rb (Santa Cruz), MetAP2 (Hu, X. et al (2006) Proc. Natl. Acad. Sci. U.S.A. 103, 18148-18153), SirT1 (Santa Cruz), acetyl-p53-K382 (Abeam), acetyl-tubulin (Sigma), histone-H3 (Santa Cruz), acetyl-H3 (Santa Cruz) and α-tubulin (TU-02, Santa Cruz) followed by the incubation with horseradish peroxidase (HRP)-conjugated anti-mouse or anti-rabbit antibodies (Santa Cruz) and enhanced chemiluminescence (ECL, Amersham).

[3] = tested on: breast cancer cells as well as human umbilical vein endothelial cells (HUVECs); test: Cell proliferation assay, breast cancer cells and HUVECs; format: cell-based; conditions: Homo sapiens, HUVEC, read-out: IC50 of proliferation, all the cell types
Description: Cell proliferation assay was performed using several different kinds of breast cancer cells as well as human umbilical vein endothelial cells (HUVECs). […].
as §1

SirT2 = SirT2 (Homo sapiens, UniProt Q8IXJ6); test: biochemical; conditions: SirT2 IC50, recombinant human sirtuin, fluorogenic substrate
SirT2, sequence (Q8IXJ6 whole entry): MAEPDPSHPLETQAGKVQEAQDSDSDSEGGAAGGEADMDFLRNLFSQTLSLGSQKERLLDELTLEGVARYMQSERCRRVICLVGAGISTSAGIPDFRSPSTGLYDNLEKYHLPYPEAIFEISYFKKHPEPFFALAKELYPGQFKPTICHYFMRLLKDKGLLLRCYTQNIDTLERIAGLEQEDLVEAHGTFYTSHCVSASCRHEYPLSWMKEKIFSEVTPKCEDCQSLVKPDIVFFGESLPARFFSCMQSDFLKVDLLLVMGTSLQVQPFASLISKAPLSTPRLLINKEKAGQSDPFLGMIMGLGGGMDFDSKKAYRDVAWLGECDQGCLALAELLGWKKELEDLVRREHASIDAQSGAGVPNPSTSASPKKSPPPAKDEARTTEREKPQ
Description: as §3

p53 and p21 mRNA = test: RT-PCR of p53 and p21 mRNA in HUVEC; format: cell-based, human; conditions: time-dependent
Description: Total RNA from cells was isolated by Trizol reagent (Invitrogen) according to manufacturer's instruction. The RNA was then reverse transcribed using Superscript III (Invitrogen) and the standard PCR procedure was conducted using specific primer sets for p53 and p21 as following; 5′-[…]-3′ (forward) and 5′-[…]-3′ (reverse) for p53, 5′-[…]-3′ (forward) and 5′-[…]-3′ (reverse) for p21. RT-PCR analysis of GAPDH was used as an internal control for normalization.

[4] = tested on: N-terminal methionine processing of 14-3-3γ by hMetAP2; test: N-terminal methionine processing of 14-3-3γ in HUVEC (Western blot); format: cell-based, human
Description: 14-3-3γ is known as a substrate of eukaryotic MetAPs and the inhibition of either isotype of MetAPs was reported to increase the N-terminal methionyl form of the protein.
Cells were lysed by adding 1 volume of 2× Laemmli buffer and were then boiled for 5 min. The samples were separated by SDS-PAGE and transferred to nitrocellulose membrane (Bio-Rad).

[5] = tested on: p53 and Rb pathways in HUVECs; test: Western blot of p53, p21 and Rb in HUVEC; format: cell-based, human
Description: as §2

SirT3 = SirT3 (Homo sapiens, UniProt Q9NTG7); test: biochemical
SirT3, sequence (Q9NTG7 whole entry): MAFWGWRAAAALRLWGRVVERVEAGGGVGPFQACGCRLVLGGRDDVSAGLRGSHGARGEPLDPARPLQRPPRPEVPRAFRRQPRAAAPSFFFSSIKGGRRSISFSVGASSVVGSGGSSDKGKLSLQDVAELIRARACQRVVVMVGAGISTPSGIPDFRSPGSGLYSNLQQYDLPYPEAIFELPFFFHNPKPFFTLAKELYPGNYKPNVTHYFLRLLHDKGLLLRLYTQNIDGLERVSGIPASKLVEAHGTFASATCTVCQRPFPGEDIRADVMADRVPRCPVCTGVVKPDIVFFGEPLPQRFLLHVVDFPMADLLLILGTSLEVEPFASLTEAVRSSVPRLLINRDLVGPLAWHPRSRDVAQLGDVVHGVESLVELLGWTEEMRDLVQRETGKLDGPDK
Description: as §3

HUVEC [6] = test: Senescence associated-β-galactosidase (SA-β-gal) staining in HUVEC; format: cell-based, human
Description: Cells in 6-well plates were washed with PBS and fixed with 3% paraformaldehyde. After washing with PBS, the cells were incubated for 24 h at 37° C. (without CO2, protected from light) in freshly prepared SA-β-gal staining solution containing 1 mg/ml 5-bromo-4-chloro-3-indolyl β-D-galactopyranoside (X-gal), 5 mM potassium ferrocyanide, 5 mM potassium ferricyanide, 150 mM NaCl, 2 mM MgCl2 and 40 mM citric acid, titrated with NaH2PO4 to pH 6.0. SA-β-gal solution was then removed and the cells were washed with PBS. The stained cells were observed under a microscope.

With O=[N+]([O-])c1ccc(O)c2ncccc12 [Entry 1c, nitroxoline] the IC50 (HUVEC [1]; read-out: Selectivity HUVEC IC50) was 1.98 µM, the IC50 (HUVEC [1]; Table 4, read-out: HUVEC IC50) was 1.98 µM and the IC50 (SirT1) was 8 µM and 8.5 µM. The “acetylation of p53-K382” value ([2]; HUVEC treated for 20 h) was “increased the acetylation of p53-K382”, the “acetylation status of tubulin or histone-H3” value ([2]; HUVEC, 6 h or 20 h) was “did not change the acetylation status” and the “acetylation of tubulin and histone-H3 in the presence of TSA” value ([2]; HUVEC, with TSA (200 nM), 24 h, nitroxoline 20 μM) was “significantly increased the acetylation of both tubulin and histone-H3”. The IC50 [3] was 2 to 5 µM, the IC50 (SirT2) was 43 µM and 35 µM and the “p21 mRNA level” value (p53 and p21 mRNA) was “increased”. For the same molecule, the “p53 mRNA level” value (p53 and p21 mRNA) was “decreased”, the “N-terminal methioninylated 14-3-3γ level” value ([4]; 24 h) was “dose-dependently increased” and the inhibition at 5 µM ([4]; Homo sapiens, read-out: inhibition of the processing of 14-3-3γ compared with hMetAP2 siRNA) was roughly 80%. For the same molecule, the p53 protein level [5] was “upregulation”, the Rb hyperphosphorylation ([5]; 8% SDS-PAGE) was “inhibited its hyperphosphorylation” and the “total amount of Rb protein” value ([5]; 12% SDS-PAGE) was “increased the total amount of Rb protein”. For the same molecule, the “p21 protein level on longer incubation” value ([5]; longer incubation) was “upregulated”, the “p53 protein level on prolonged exposure” value ([5]; up to 72 h) was “sustained increase in p53 protein level” and the “expression of p21” value ([5]; within 24 h of treatment) was “no effect”. For the same molecule, the IC50 (SirT3) was greater than 50 µM, the “premature senescence in HUVEC” value (HUVEC [6]; 72 h, valproic acid 0.1 mM, TNP-470 20 nM) was “induced premature senescence” and the reversibility of senescence (HUVEC [6]; 72 h treatment, then fresh media for an additional 48 h) was “remained senescent”.
